Experiments:
[1] = tested on: NCI-H1373-luc intracranial tumors; test: Brain metastasis intracranial model, efficacy (bioluminescence); assay type: in vivo
Excerpt: The purpose of this assay is to determine whether brain exposure of the compounds of current invention was sufficient to mediate regression of tumors in experimental Brain Metastases (BM) models.
NCI-H1373 cell line was purchased from the ATCC (CRL-5866). NCI-H1373-Luc cells were generated by WuXi AppTec. For generating NCI-H1373-Luc cell line, NCI-H1373 cells were transduced with GFP-Luc-puro lentivirus vector (HBLV-1014, HANBIO, carrying cDNA coding for firefly luciferase) and then selected with 1 μg/mL puromycin. All cells were authenticated by short tandem repeat fingerprinting, and periodically tested to be Mycoplasma free. H1373-luc cells were cultured in medium containing RPMI1640 (Thermo Fisher Scientific) plus 10% Fetal Bovine Serum (FBS, Thermo Fisher Scientific, 2.5 μg/mL puromycin and 1% Antibiotic-Antimycotic (Thermo Fisher Scientific), at 37° C. in an atmosphere of 5% CO2 in air. The medium was renewed every 2 to 3 days and tumor cells were routinely sub-cultured at a confluence of 80-90%. Cells growing in an exponential growth phase were harvested and counted for inoculation.
Murine studies were conducted at the WuXi AppTec and were performed in compliance with all applicable regulations and guidelines of the Institutional Animal Care and Use Committee (IACUC). Mice were maintained in a special pathogen-free environment and in individual ventilation cages, and food and water will be sterilized before use. 8 to 9 weeks female NU/NU nude mice (Charles River Lab.) were implanted intracarotid injection with 0.5×10^5 NCI-H1373-Luc cells in 100 μL serum-free media. When bioluminescence reached a mean of 1.28E+08 photons/second (range of 5.79E+07-2.685E+08 photons/second) at day 15 post inoculation, tumor-bearing mice were randomized into different groups with 4 mice in each group. The randomization date was denoted as treatment day 0. Afterwards, oral daily dosing of vehicle or Example 24 began and continued for 14 days. Baseline bioluminescent imaging (BLI) began 24 hours prior to initial dosing with vehicle or test articles, and additional imaging time points for all animals were measured twice a week by Xenogen machine (PerkinElmer IVIS Lumina II) between 0-14 days post grouping. […]
TGI (tumor growth inhibition) was calculated for each group using the formula: TGI (%)=[1−(Ti−T0)/(Vi−V0)]×100; Ti is the average tumor bioluminescence of a treatment group on a given day, T0 is the average tumor bioluminescence of the treatment group on the day of treatment start, Vi is the average tumor bioluminescence of the vehicle control group on the same day with Ti, and V0 is the average tumor bioluminescence of the vehicle group on the day of treatment start. […]

[2] = tested on: phosphorylation of ERK, KRAS G12C in NCI-H358 cells; test: pERK inhibition assay; assay type: cell-based; settings: Homo sapiens, NCI-H358, 4 h
How it was run: (§1)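 NCI-H358 (KRAS G12C), AGS (G12D) and SW620 (G12V) cells plated overnight, then treated with compound for 4 h in 0.5% DMSO. After fixing and methanol permeabilisation, phospho-ERK was detected by in-cell ELISA (HRP/TMB, OD450). IC50 from a 4-parameter sigmoidal fit.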

[3] = tested on: phosphorylation of ERK, KRAS G12D in AGS cells; test: pERK inhibition assay; assay type: cell-based; settings: 4 hours
How it was run: as §1

[4] = tested on: phosphorylation of ERK, KRAS G12V in SW620; test: pERK inhibition assay; assay type: cell-based; settings: Homo sapiens, SW-620, 4 h, SW620 cells
How it was run: as §1

[5] = day 14, 30 mg/kg, PO, QD, NCI-H1373-luc intracranial

CO[C@@H](C)c1ncc(N2CCN(C)CC2)cc1-c1c2c3cc(cc4c3n1CCC4)-c1csc(n1)C[C@H](NC(=O)[C@H]1[C@H](C)[C@@H]1C)C(=O)N1CCC[C@H](N1)C(=O)OCC(C)(C)C2 (atropisomer, axis not shown; (M)) [Example 24, (1r,2R,3S)-N-[(7S,13S)-(20M)-20-[2-[(1S)-1-methoxyethyl]-5-(4-methylpiperazin-1-yl)-3-pyridyl]-17,17-dimethyl-8,14-dioxo-15-oxa-4-thia-9,21,30,31-tetrazahexacyclo[23.3.1.1^2,5.1^9,13.0^19,27.0^21,26]hentriaconta-1 (28),2,5 (31), 19,25 (29),26-hexaen-7-yl]-2,3-dimethyl-cyclopropanecarboxamide] was tested, and the “tolerability (overt toxicity, animal weight)” value ([1]; 30 mg/kg once daily for 14 days, NCI-H1373-luc intracranial model) was “no sign of overt toxicity or animal weight loss”, the ROI [1, 5] was 1.34 ± 0.75 ×10^7 photon/s and the T/C [1, 5] was 0.52%. The TGI [1, 5] was 104.68%, the IC50 [2] was < 600 pM and the IC50 [3] was 900 pM. For the same compound, the IC50 [4] was < 600 pM.

Source: US20240417410A1, “TRICYCLIC COMPOUNDS FOR THE TREATMENT OF CANCER” (Hoffmann-La Roche Inc., priority 2023, published 2024)
